# Patent publication US8883841B2, “Oncogenic ras-specific cytotoxic compound and methods of use thereof” (The Board of Regents of the University of Texas System, priority 2005, dated 2014)
# Like-named read-outs stand apart in the source and are kept apart here.
# Assays:
# [1] = test system: A549CK8; assay: Cell viability, A549CK8 lung cancer cells; format: cell-based, human; settings: Homo sapiens; A549CK8, Lung; read-out: IC50 (−LogM) (converted)
# [2] = test system: NCI-H460; assay: NCI in-vitro testing, NCI-H460 (Non-Small Cell Lung Cancer)
# [3] = test system: KM12; assay: NCI in-vitro testing, KM12 (Colon Cancer)
# [4] = test system: H1395; assay: Cell viability, H1395 lung cancer cells; format: cell-based, human; settings: Homo sapiens, NCI-H1395; H1395, Lung; read-out: IC50 (−LogM) (converted)
# [5] = test system: Capanc-1; assay: Cell viability, Capanc-1 pancreatic cancer cells; format: cell-based, human; settings: Homo sapiens, Pancreatic cancer cell; capanc1, Pancrease; read-out: IC50 (−LogM) (converted)
# [6] = test system: Ovca429; assay: Cell viability, Ovca429 ovary cancer cells; format: cell-based
# [7] = test system: H1299 cells; assay: Cell viability, H1299 lung cancer cells; format: cell-based, human; settings: Homo sapiens, NCI-H1299; h1299, Lung; read-out: IC50 (−LogM) (converted)
# [8] = test system: H2122; assay: Cell viability, H2122 lung cancer cells; format: cell-based, human; settings: Homo sapiens, NCI-H2122; H2122, Lung; read-out: IC50 (−LogM) (converted)
# [9] = test system: AsPC-1; assay: Cell viability, AsPC-1 pancreatic cancer cells; format: cell-based, human; settings: Homo sapiens; ASPC1, Pancrease; read-out: IC50 (−LogM) (converted)
# [10] = test system: CT116P53; assay: Cell viability, CT116P53 colon cancer cells; format: cell-based, human; settings: Homo sapiens; CT116P53, Colon; read-out: IC50 (−LogM) (converted)
# [11] = test system: H226B cells; assay: Cell viability, H226B lung cancer cells; format: cell-based, human; settings: Homo sapiens, H226B, Lung, read-out: IC50 (−LogM) (converted)
# [12] = test system: Heb44; assay: Cell viability, Heb44 kidney cells; format: cell-based
# [13] = test system: DLD1; assay: Cell viability, DLD1 colon cancer cells; format: cell-based, human; settings: Homo sapiens, DLD-1; DLD1, Colon; read-out: IC50 (−LogM) (converted)
# [14] = test system: Ovcar3; assay: Cell viability, Ovcar3 ovary cancer cells; format: cell-based; settings: Homo sapiens, OVCAR-3
# [15] = test system: MCF7; assay: NCI in-vitro testing, MCF7 (Breast Cancer)
# [16] = test system: Heb46; assay: Cell viability, Heb46 kidney cells; format: cell-based
# [17] = test system: A549 cells; assay: Cell viability, A549 lung cancer cells; format: cell-based, human; settings: Homo sapiens; A549, Lung; read-out: IC50 (−LogM) (converted)
# [18] = test system: miapac; assay: Cell viability, miapac pancreatic cancer cells; format: cell-based, human; settings: Homo sapiens, Pancreatic cancer cell; miapac, Pancrease; read-out: IC50 (−LogM) (converted)
# [19] = test system: H2009; assay: Cell viability, H2009 lung cancer cells; format: cell-based, human; settings: Homo sapiens, NCI-H2009; H2009, Lung; read-out: IC50 (−LogM) (converted)
# [20] = test system: OVCAR-4; assay: NCI in-vitro testing, OVCAR-4 (Ovarian Cancer)
# [21] = test system: SW-620; assay: NCI in-vitro testing, SW-620 (Colon Cancer)
# [22] = test system: SK-MEL-5; assay: NCI in-vitro testing, SK-MEL-5 (Melanoma)
# [23] = test system: Hct116; assay: Cell viability, Hct116 colon cancer cells; format: cell-based, human; settings: Homo sapiens, HCT-116; Hct116, Colon; read-out: IC50 (−LogM) (converted)
# [24] = test system: NCI-H522; assay: NCI in-vitro testing, NCI-H522 (Non-Small Cell Lung Cancer)
# [25] = test system: SK-MEL-28; assay: NCI in-vitro testing, SK-MEL-28 (Melanoma)
# [26] = test system: H1933; assay: Cell viability, H1933 lung cancer cells; format: cell-based, human; settings: Homo sapiens; H1933, Lung; read-out: IC50 (−LogM) (converted)
# [27] = test system: HKE3; assay: Cell viability, HKE3 colon cancer cells; format: cell-based, human; settings: Homo sapiens, HKE3, Colon, read-out: IC50 (−LogM) (converted)
compound,measurement,setting,value
"OCc1cn(Cc2ccc(Cl)cc2)c2ccccc12 [Oncrasin K060, 1H-Indole-3-methanol, 1-[(4-chlorophenyl)methyl]-]",IC50,[1],1 µM
same,TGI,[2],3.79E−5 Molar
same,GI50,"[2]; Homo sapiens, NCI-H460",0.0888 µM
same,CC50,"[2]; Homo sapiens, NCI-H460, read-out: LC50",> 100 µM
same,GI50,"[2]; Homo sapiens, NCI-H460, read-out: Log10 GI50 (converted)",0.0891 µM
same,Percent Growth,[2]; Log10 Concentration −4.0 Molar,−9%
same,Percent Growth,[2]; Log10 Concentration −5.0 Molar,13%
same,Percent Growth,[2]; Log10 Concentration −6.0 Molar,20%
same,Percent Growth,[2]; Log10 Concentration −7.0 Molar,48%
same,Percent Growth,[2]; Log10 Concentration −8.0 Molar,79%
same,GI50,"[3]; Homo sapiens, KM12",18.3 µM
same,CC50,"[3]; Homo sapiens, KM12, read-out: LC50",9.44 µM
same,GI50,"[3]; Homo sapiens, KM12, read-out: Log10 GI50 (converted)",18.2 µM
same,TGI,[3]; KM12,1.15E−6 Molar
same,Percent Growth,"[3]; KM12, Log10 Concentration −4.0 Molar",−64%
same,Percent Growth,"[3]; KM12, Log10 Concentration −5.0 Molar",87%
same,Percent Growth,"[3]; KM12, Log10 Concentration −6.0 Molar",102%
same,Percent Growth,"[3]; KM12, Log10 Concentration −7.0 Molar",113%
same,Percent Growth,"[3]; KM12, Log10 Concentration −8.0 Molar",108%
same,IC50,[4],20 µM
same,IC50,[5],10 µM
same,IC50,[6],31.6 µM
same,IC50,[7],3.16 µM
same,IC50,[8],1 µM
same,IC50,[9],2 µM
same,IC50,[10],< 31.6 µM
same,IC50,[11]; first H226B line,0.00251 µM
same,IC50,[11]; second H226B line,0.00316 µM
same,IC50,[12],0.01 µM
same,IC50,[13],< 31.6 µM
same,IC50,[14],0.1 µM
same,GI50,"[15]; Homo sapiens, MCF7",0.0573 µM
same,CC50,"[15]; Homo sapiens, MCF7, read-out: LC50",> 100 µM
same,GI50,"[15]; Homo sapiens, MCF7, read-out: Log10 GI50 (converted)",0.0676 µM
same,TGI,[15]; MCF7,2.75E−5 Molar
same,Percent Growth,"[15]; MCF7, Log10 Concentration −4.0 Molar",−10%
same,Percent Growth,"[15]; MCF7, Log10 Concentration −5.0 Molar",8%
same,Percent Growth,"[15]; MCF7, Log10 Concentration −6.0 Molar",10%
same,Percent Growth,"[15]; MCF7, Log10 Concentration −7.0 Molar",45%
same,Percent Growth,"[15]; MCF7, Log10 Concentration −8.0 Molar",75%
same,IC50,[16],0.2 µM
same,IC50,[17],2 µM
same,IC50,[18],< 31.6 µM
same,IC50,[19],15.8 µM
same,GI50,"[20]; Homo sapiens, OVCAR-4",0.34 µM
same,CC50,"[20]; Homo sapiens, OVCAR-4, read-out: LC50",> 100 µM
same,GI50,"[20]; Homo sapiens, OVCAR-4, read-out: Log10 GI50 (converted)",0.339 µM
same,TGI,[20]; OVCAR-4,1.80E−5 Molar
same,Percent Growth,"[20]; OVCAR-4, Log10 Concentration −4.0 Molar",−29%
same,Percent Growth,"[20]; OVCAR-4, Log10 Concentration −5.0 Molar",10%
same,Percent Growth,"[20]; OVCAR-4, Log10 Concentration −6.0 Molar",31%
same,Percent Growth,"[20]; OVCAR-4, Log10 Concentration −7.0 Molar",71%
same,Percent Growth,"[20]; OVCAR-4, Log10 Concentration −8.0 Molar",94%
same,GI50,"[21]; Homo sapiens, SW-620",0.571 µM
same,CC50,"[21]; Homo sapiens, SW-620, read-out: LC50",> 100 µM
same,GI50,"[21]; Homo sapiens, SW-620, read-out: Log10 GI50 (converted)",0.575 µM
same,TGI,[21]; SW-620,1.80E−5 Molar
same,Percent Growth,"[21]; SW-620, Log10 Concentration −4.0 Molar",−46%
same,Percent Growth,"[21]; SW-620, Log10 Concentration −5.0 Molar",16%
same,Percent Growth,"[21]; SW-620, Log10 Concentration −6.0 Molar",39%
same,Percent Growth,"[21]; SW-620, Log10 Concentration −7.0 Molar",83%
same,Percent Growth,"[21]; SW-620, Log10 Concentration −8.0 Molar",94%
same,GI50,"[22]; Homo sapiens, SK-MEL-5",4.97 µM
same,CC50,"[22]; Homo sapiens, SK-MEL-5, read-out: LC50",45.5 µM
same,GI50,"[22]; Homo sapiens, SK-MEL-5, read-out: Log10 GI50 (converted)",5.01 µM
same,TGI,[22]; SK-MEL-5,1.95E−5 Molar
same,Percent Growth,"[22]; SK-MEL-5, Log10 Concentration −4.0 Molar",−97%
same,Percent Growth,"[22]; SK-MEL-5, Log10 Concentration −5.0 Molar",40%
same,Percent Growth,"[22]; SK-MEL-5, Log10 Concentration −6.0 Molar",74%
same,Percent Growth,"[22]; SK-MEL-5, Log10 Concentration −7.0 Molar",92%
same,Percent Growth,"[22]; SK-MEL-5, Log10 Concentration −8.0 Molar",95%
same,IC50,[23],0.1 µM
same,TGI,[24],1.24E−5 Molar
same,GI50,"[24]; Homo sapiens, NCI-H522",2.41 µM
same,CC50,"[24]; Homo sapiens, NCI-H522, read-out: LC50",51 µM
same,GI50,"[24]; Homo sapiens, NCI-H522, read-out: Log10 GI50 (converted)",2.4 µM
same,Percent Growth,[24]; Log10 Concentration −4.0 Molar,−74%
same,Percent Growth,[24]; Log10 Concentration −5.0 Molar,7%
same,Percent Growth,[24]; Log10 Concentration −6.0 Molar,76%
same,Percent Growth,[24]; Log10 Concentration −7.0 Molar,82%
same,Percent Growth,[24]; Log10 Concentration −8.0 Molar,91%
same,GI50,"[25]; Homo sapiens, SK-MEL-28",18 µM
same,CC50,"[25]; Homo sapiens, SK-MEL-28, read-out: LC50",> 100 µM
same,GI50,"[25]; Homo sapiens, SK-MEL-28, read-out: Log10 GI50 (converted)",17.8 µM
same,TGI,[25]; SK-MEL-28,4.44E−5 Molar
same,Percent Growth,"[25]; SK-MEL-28, Log10 Concentration −4.0 Molar",−15%
same,Percent Growth,"[25]; SK-MEL-28, Log10 Concentration −5.0 Molar",82%
same,Percent Growth,"[25]; SK-MEL-28, Log10 Concentration −6.0 Molar",93%
same,Percent Growth,"[25]; SK-MEL-28, Log10 Concentration −7.0 Molar",99%
same,Percent Growth,"[25]; SK-MEL-28, Log10 Concentration −8.0 Molar",93%
same,IC50,[26],10 µM
same,IC50,[27]; first HKE3 line,0.0251 µM
same,IC50,[27]; second HKE3 line,< 0.00316 µM
